From patent US5436229A, “Bisulfite adducts of arginine aldehydes” (Eli Lilly and Company, priority 1994, dated 1995)
Non-standard residues stand in square brackets, D forms with d. Residues, ends and D or L forms follow the SMILES beside them. dNMeCha = CN[C@H](CC1CCCCC1)C(=O)O

Test system: human plasma
Assay: Human plasma anticoagulation, thrombin time (TT)
Assay type: biochemical
How it was run: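 Compounds added across a wide concentration range to human plasma; APTT, PT and TT clotting times measured on a coagulation instrument, bovine thrombin used for plasma assays. Concentration doubling clotting time estimated by linear extrapolation.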

## CN[C@H](CC1CCCCC1)C(=O)N1CCC[C@H]1C(=O)N[C@H](C=O)CCCNC(=N)N.Cl [Example 75, N-methyl-D-cyclohexylalanyl-L-Prolinyl-L-Arginine Aldehyde Hydrochloride] (H-[dNMeCha]-Pro-Arg-aldehyde)
  2 × Clotting time TT: 18 ng/mL
